Experimental findings from US11142527B2, “Dihydropyrimidine compounds and uses thereof in medicine” (SUNSHINE LAKE PHARMA CO., LTD., priority 2017, dated 2021) are described below.

One series concerns HBV. Kind of series: Test of anti HBV activity in vitro (viral DNA by qPCR). In kind it is cell-based. The conditions noted are these: Hepatitis B virus; HepG2.2.15 cells, viral DNA in cell culture supernatant by qPCR; read-out: EC50 values of the compound of the invention on viral replication. The method in brief:
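HepG2.2.15 cells (integrated HBV genome) were grown to confluence, then treated with compound in 4-fold dilutions from 4 μM final (0.5% DMSO). Secreted viral DNA in supernatant was quantified by SYBR qPCR against an HBV plasmid standard curve; EC50 from four-parameter nonlinear regression of concentration versus copy number.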

Series [1] in a line: Cytotoxicity test with CellTiter Glo. In kind it is cell-based. As to conditions: human, HepG2.2.15 cells, highest concentration 150 μM, read-out: CC50 values of the compounds of the invention. The method in brief: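 HepG2.2.15 cells (3000/well) exposed to serially diluted compound, highest final concentration 150 μM, for 4 days at 37 °C. Viability read by CellTiter Glo, cytotoxicity % taken relative to DMSO controls, and CC50 obtained by four-parameter nonlinear regression.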
A general note: In ATP-based viability assays light output follows the ATP content of the culture.

Bounds are passed on as bounds.

In the case of `COC(=O)C1=C(CN2CCN3C(=O)N(c4ccc(=O)n(-c5ccc(C(=O)O)cc5F)c4)C[C@@H]3C2)NC(c2nccs2)=N[C@H]1c1ccc(F)cc1Cl` [Example 80, 4-(5-((S)-7-(((R)-6-(2-chloro-4-fluorophenyl)-5-(methoxycarbonyl)-2-(thiazol-2-yl)-3,6-dihydropyrimidin-4-yl)methyl)-3-oxohexahydroimidazo[1,5-a]pyrazin-2(3H)-yl)-2-oxopyridin-1(2H)-yl)-3-fluorobenzoic acid], the EC50 in the series with HBV is 15.8 nM. In series [1], the CC50 at 4 days is > 150000 nM.
For the molecule `COC(=O)C1=C(CN2CCN3C(=O)N(c4ccc(-c5nc(C6CC6)c[nH]5)cc4)C[C@@H]3C2)NC(c2nccs2)=N[C@H]1c1ccc(F)cc1Cl` [Example 111, (R)-methyl 4-(2-chloro-4-fluorophenyl)-6-(((S)-2-(4-(4-cyclopropyl-1H-imidazol-2-yl)phenyl)-3-oxohexahydroimidazo[1,5-a]pyrazin-7(1H)-yl)methyl)-2-(thiazol-2-yl)-1,4-dihydropyrimidine-5-carboxylate], the EC50 in the series with HBV was found to be 7.5 nM. Besides, the CC50 at 4 days in series [1] was > 150000 nM.
For `COC(=O)C1=C(CN2CCN3C(=O)N(c4ccc(Oc5ccc(C(=O)N6CCC(CO)CC6)cc5)cc4)C[C@@H]3C2)NC(c2nccs2)=N[C@H]1c1ccc(F)cc1Cl` [Example 60, (R)-methyl 4-(2-chloro-4-fluorophenyl)-6-(((S)-2-(4-(4-(4-(hydroxymethyl)piperidine-1-carbonyl)phenoxy)phenyl)-3-oxohexahydroimidazo[1,5-a]pyrazin-7(1H)-yl)methyl)-2-(thiazol-2-yl)-1,4-dihydropyrimidine-5-carboxylate] the same measures were 32.3 nM and > 150000 nM.
For `COC(=O)C1=C(CN2CCN3C(=O)N(c4nc(-c5ccc(C(=O)O)c(F)c5)cs4)C[C@@H]3C2)NC(c2nccs2)=N[C@H]1c1ccc(F)cc1Cl` [Example 137, 4-(2-((S)-7-(((R)-6-(2-chloro-4-fluorophenyl)-5-(methoxycarbonyl)-2-(thiazol-2-yl)-3,6-dihydropyrimidin-4-yl)methyl)-3-oxohexahydroimidazo[1,5-a]pyrazin-2(3H)-yl)thiazol-4-yl)-2-fluorobenzoic acid] the same measures were 10 nM and > 150000 nM.
As for `COC(=O)C1=C(CN2CCN3C(=O)N(c4ccc(-c5ccc(C(C)(C)C(=O)O)cc5)cn4)C[C@@H]3C2)NC(c2nccs2)=N[C@H]1c1ccc(F)cc1Cl` [Example 19, 2-(4-(6-((S)-7-(((R)-6-(2-chloro-4-fluorophenyl)-5-(methoxycarbonyl)-2-(thiazol-2-yl)-3,6-dihydropyrimidin-4-yl)methyl)-3-oxohexahydroimidazo[1,5-a]pyrazin-2(3H)-yl)pyridin-3-yl)phenyl)-2-methylpropionic acid], the half-maximal effective concentration (EC50) in the series with HBV was determined as 14 nM. In series [1], the CC50 at 4 days was > 150000 nM.
For `COC(=O)C1=C(CN2CCN3C(=O)N(CC#Cc4ccc(C#N)cc4)C[C@@H]3C2)NC(c2nccs2)=N[C@H]1c1ccc(F)cc1Cl` [Example 44, (R)-methyl 4-(2-chloro-4-fluorophenyl)-6-(((S)-2-(3-(4-cyanophenyl)prop-2-yn-1-yl)-3-oxohexahydroimidazo[1,5-a]pyrazin-7(1H)-yl)methyl)-2-(thiazol-2-yl)-1,4-dihydropyrimidine-5-carboxylate] the same measures were 3.6 nM and > 150000 nM.
Turning to `COC(=O)C1=C(CN2CCN3C(=O)N(c4ccc(Oc5ccc(C#N)cc5)cc4)C[C@@H]3C2)NC(c2nccs2)=N[C@H]1c1ccc(F)cc1Cl` [Example 97, (R)-methyl 4-(2-chloro-4-fluorophenyl)-6-(((S)-2-(4-(4-cyanophenoxy)phenyl)-3-oxohexahydroimidazo[1,5-a]pyrazin-7(1H)-yl)methyl)-2-(thiazol-2-yl)-1,4-dihydropyrimidine-5-carboxylate], the EC50 with HBV was found to be 36.8 nM. Also, in series [1], the CC50 at 4 days is > 150000 nM.
For the molecule `COC(=O)C1=C(CN2CCN3C(=O)N(c4ccc(N5CCO[C@H](CCC(=O)O)C5)cc4)C[C@@H]3C2)NC(c2nccs2)=N[C@H]1c1ccc(F)cc1Cl` [Example 20, 3-((R)-4-(4-((S)-7-(((R)-6-(2-chloro-4-fluorophenyl)-5-(methoxycarbonyl)-2-(thiazol-2-yl)-3,6-dihydropyrimidin-4-yl)methyl)-3-oxohexahydroimidazo[1,5-a]pyrazin-2(3H)-yl)phenyl)morpholin-2-yl)propionic acid], in the series on HBV, the EC50 worked out at 4 nM. The CC50 at 4 days in series [1] was > 150000 nM.
The corresponding values for `COC(=O)C1=C(CN2CCN3C(=O)N(c4ccc(-c5cc(C(=O)O)ccc5F)cc4)C[C@@H]3C2)NC(c2nccs2)=N[C@H]1c1ccc(F)cc1Cl` [Example 116] are 19.9 nM and > 150000 nM.
For `COC(=O)C1=C(CN2CCN3C(=O)N(c4cc(F)cc(N5CCC(C(=O)O)CC5)c4)C[C@@H]3C2)NC(c2nccs2)=N[C@H]1c1ccc(F)cc1Cl` [Example 32, 1-(3-((S)-7-(((R)-6-(2-chloro-4-fluorophenyl)-5-(methoxycarbonyl)-2-(thiazol-2-yl)-3,6-dihydropyrimidin-4-yl)methyl)-3-oxohexahydroimidazo[1,5-a]pyrazin-2(3H)-yl)-5-fluorophenyl)piperidine-4-carboxylic acid] the same measures were 6 nM and > 150000 nM.
The corresponding values for `COC(=O)C1=C(CN2CCN3C(=O)N(c4ccc(Oc5ccc(C(C)(C)O)cc5)cc4)C[C@@H]3C2)NC(c2nccs2)=N[C@H]1c1ccc(F)cc1Cl` [Example 100, (R)-methyl 4-(2-chloro-4-fluorophenyl)-6-(((S)-2-(4-(4-(2-hydroxyprop-2-yl)phenoxy)phenyl)-3-oxohexahydroimidazo[1,5-a]pyrazin-7(1H)-yl)methyl)-2-(thiazol-2-yl)-1,4-dihydropyrimidine-5-carboxylate] are 16.8 nM and > 150000 nM.
`COC(=O)C1=C(CN2CCN3C(=O)N(c4ccc(Sc5ccc(C(=O)O)cc5)cc4)C[C@@H]3C2)NC(c2nccs2)=N[C@H]1c1ccc(F)cc1Cl` [Example 91, 4-((4-((S)-7-(((R)-6-(2-chloro-4-fluorophenyl)-5-(methoxycarbonyl)-2-(thiazol-2-yl)-3,6-dihydropyrimidin-4-yl)methyl)-3-oxohexahydroimidazo[1,5-a]pyrazin-2(3H)-yl)phenyl)thio)benzoic acid]: the EC50 with HBV came to 37.7 nM. Also, in series [1], the CC50 at 4 days was > 150000 nM.
The corresponding values for `COC(=O)C1=C(CN2CCN3C(=O)N(c4ccc(-c5ccc(C(=O)O)cc5)c(F)c4)C[C@@H]3C2)NC(c2nccs2)=N[C@H]1c1ccc(F)cc1Cl` [Example 35, 4′-((S)-7-(((R)-6-(2-chloro-4-fluorophenyl)-5-(methoxycarbonyl)-2-(thiazol-2-yl)-3,6-dihydropyrimidin-4-yl)methyl)-3-oxohexahydroimidazo[1,5-a]pyrazin-2(3H)-yl)-2′-fluoro-[1,1′-diphenyl]-4-carboxylic acid] are 7 nM and > 150000 nM.
The corresponding values for `COC(=O)C1=C(CN2CCN3C(=O)N(c4ccc(OC5CCC(C(=O)O)CC5)cc4F)C[C@@H]3C2)NC(c2nccs2)=N[C@H]1c1ccc(F)cc1Cl` (stereo partly drawn) [Example 112, 4-(4-((S)-7-(((R)-6-(2-chloro-4-fluorophenyl)-5-(methoxycarbonyl)-2-(thiazol-2-yl)-3,6-dihydropyrimidin-4-yl)methyl)-3-oxohexahydroimidazo[1,5-a]pyrazin-2(3H)-yl)-3-fluorophenoxy)cyclohexane carboxylic acid] are 15.4 nM and > 150000 nM.

As usually defined, the EC50 is the concentration giving half of the maximal effect. One may read the CC50 as the concentration at which the toxic effect on the cells reaches its halfway point.
